Laboratory results: patent US7271274B2, “Phenolic antioxidants for the treatment of disorders including arthritis, asthma and coronary artery disease” (AhteroGenics, Inc., priority 2004, dated 2007)
pIC50: −log10 of the molar value.

Key:
VCAM-1 [1] = assay: In Vitro VCAM-1 Assay - Method 1 (TNF-α stimulated endothelial cells, surface VCAM-1 ELISA); type: cell-based; conditions: Homo sapiens, Endothelial cell; HAEC or HPAEC, TNF-α 1 ng/ml with compound approximately 16 hours
Description: Cell Culture and compound dosing: Cultured primary human aortic (HAEC) or pulmonary (HPAEC) endothelial cells were obtained from Clonetics, Inc., and were used below passage 9. Cells were seeded in 96 well plates such that they would reach 90–95% confluency by the following day. On the following day the cells were stimulated with TNF-α (1 ng/ml) in the presence or absence of compounds dissolved in DMSO such that the final concentration of DMSO is 0.25% or less. To establish a dose curve for each compound, four concentrations in 2- to 5-fold increments were used. Cells were exposed to TNF-α and compounds for approximately 16 hours. The next day the cells were examined under microscope to score for visual signs of toxicity or cell stress.
Following 16 hr exposure to TNF-α and compound the media was discarded and the cells were washed once with Hanks Balanced Salt Solution (HBSS)/Phosphate buffered saline (PBS) (1:1). Primary antibodies against VCAM-1 (0.25 μg/ml in HBSS/PBS+5% FBS) were added and incubated for 30–60 minutes at 37° C. Cells were washed with HBSS/PBS three times, and secondary antibody Horse Radish Peroxidase (HRP)-conjugated goat anti-mouse IgG (1:500 in HBSS/PBS+5% FBS) were added and incubated for 30 minutes at 37° C. Cells were washed with HBSS/PBS four time and TMB substrate were added and incubated at room temperature in the dark until there was adequate development of blue color. The length of time of incubation was typically 5–15 minutes. 2N sulfuric acid was added to stop the color development and the data was collected by reading the absorbance on a BioRad ELISA plate reader at OD 450 nm. The results are expressed as IC50 values (the concentration (micromolar) of compound required to inhibit 50% of the maximal response of the control sample stimulated by TNF-α only). IC50's of tested compounds are tabulated in Biological Table 1.

Female Lewis rats = assay: In vivo rheumatoid arthritis model (Freund's complete adjuvant, paw swelling); conditions: paw swelling vs vehicle control
Description: Female Lewis rats (200–250 g) were sensitized with Freund's complete adjuvant (100 ug) by subcutaneous injection at the base of the tail. Paw swelling was monitored by measuring the volume of each foot with a plethysmometer on days 5, 8, 12–15. Animals were euthanized on day 15. […] Data is expressed as the % inhibition of paw swelling (AUC of the paw volume vs time curve d5–15) compared with vehicle control. The formulations used contained various mixtures of the following excipients (propylene glycol, polyethylene glycol, Tween 80, Glycofurol).

VCAM-1 [2] = assay: In Vitro VCAM-1 Assay - Method 2 (19 h predosing, 4 h TNFα stimulation, surface VCAM-1); type: cell-based; conditions: Homo sapiens; HAEC or HPAEC, predosed 19 hours, TNFα 1.5 ng/ml 4 hours
Description: Cultured primary human aortic (HAEC) or pulmonary artery (HPAEC) endothelial cells are obtained from BioWhittaker (formerly Clonetics), and are used below passage 9. Cells are seeded in 96-well plates such that they will reach ˜95% confluency by the following day (i.e.10,000 cells/well). Compounds are reconstituted in DMSO (100%) and sonicated to ensure maximum dissolution. Dilutions are then made in DMSO to 500× of final concentrations. These stocks are then diluted 500× into cell culture media (EGM-2 Mv, BioWhittaker) and placed overnight in tissue culture incubator (37° C., 5% CO2) to allow maximum dissolution).
Media is removed from the cells and replaced with the prewarmed dosing media. Cells are predosed in this manner for 19 hours at 37° C., 5% CO2. Remove media again from the cells and replace with prepared dosing media containing TNFα (1.5 ng/ml). Allow stimulation to continue for 4 hours at 37° C., 5% CO2. Media is removed and saved for evaluation of secreted factors as needed. Cells are used for quantitating surface VCAM-1, followed by Hoescht nuclear stain for cell number to determine toxicity. Assay for surface VCAM-1 continues as described in Method 1. IC50's of tested compounds are tabulated in Biological Table 1.

TNF-α = assay: Cytokine screening: LPS-induced secretion of TNF-α from hPBMCs; type: cell-based; conditions: Homo sapiens, Biological Table 3; LPS-induced secretion from hPBMN cells; average of at least three determinations
Description: Fresh cryopreserved hPBMCs (1 million cells/ml; Clonetics, Inc.) were pretreated with test compound for 1 hr in lymphocyte growth media-3 (Clonetics, Inc.), followed by stimulation with 1 μg/ml of LPS for another 2 hr in the presence of test compound. Conditioned media was collected and assayed for secreted TNF-α, IL-1β and […] using commercially available human ELISA kits (R&D Systems). Samples were measured in duplicate and data presented as mean ± standard deviation. Each experiment was repeated at least three times with similar results.

Balb/C mice = assay: In vivo asthma model (ovalbumin-sensitized mice, BAL fluid eosinophilia); conditions: 25 mg/kg, sc, qd; BALF eosinophilia vs vehicle control
Description: Balb/C mice (6–8 weeks old) were sensitized to ovalbumin (ova) (8 ug ova absorbed in 3.3 mg Alum inject) on days 0 and 5. On day 12, the mice were aerosol challenged with 0.5% ovalbumin dissolved in sterile saline for 1 hr in the AM, and then again in the PM (at least 4 hr apart). On day 14, the mice were anesthetized with ketamine/xylazine/acepromazine cocktail, exsanguinated, and then euthanized. Following blood collection, bronchoaveolar lavage (BAL) was performed on each animal. Total cell counts were conducted on the lavage fluid, which was subsequently diluted with cell media 1:1. Slides of the lavage fluid were made by spinning the samples with a cytospin centrifuge and then air drying. Cell differentials of the lavage fluid were determined by microscopic evaluation of hematoxylin and eosin-stained slides. Data are expressed as the % inhibition of eosinophilia in the BAL fluid compared to the vehicle control. […] The formulations used contained various mixtures of the following excipients (propylene glycol, polyethylene glycol, Tween 80, Glycofurol).

| pIC50 (VCAM-1 [1]) | melting point [°C] | pIC50 (VCAM-1 [2]) | pIC50 (TNF-α) | SMILES | Rheumatoid arthritis model (25 mg/kg, sc, qd, inhibition of paw swelling in percentage) (Female Lewis rats) [percentage] | Inhibition of BAL fluid eosinophilia (asthma model) (Balb/C mice) [percentage] |
| --- | --- | --- | --- | --- | --- | --- |
| 5.22 | – | – | – | CC(C)(Sc1cc(C(C)(C)C)c(O)c(C(C)(C)C)c1)Sc1cc(C(C)(C)C)c(OCC(=O)NCC(=O)O)c(C(C)(C)C)c1 [Ex-3, (2-{2,6-Di-tert-butyl-4-[1-(3,5-di-tert-butyl-4-hydroxyphenylsulfanyl)-1-methylethylsulfanyl]phenoxy}acetylamino)acetic acid] | – | – |
| 5.15 | 115 to 119 | – | – | CN(CC(=O)O)C(=O)COc1c(C(C)(C)C)cc(SC(C)(C)Sc2cc(C(C)(C)C)c(O)c(C(C)(C)C)c2)cc1C(C)(C)C [Ex-4, [(2-{2,6-Di-tert-butyl-4-[1-(3,5-di-tert-butyl-4-hydroxyphenylsulfanyl)-1-methylethylsulfanyl]phenoxy}acetyl)methylamino]acetic acid] | – | – |
| 5.22 | – | – | – | CC(C)(Sc1cc(C(C)(C)C)c(O)c(C(C)(C)C)c1)Sc1cc(C(C)(C)C)c(OCC(=O)NCCC(=O)O)c(C(C)(C)C)c1 [Ex-5, 3-(2-{2,6-Di-tert-butyl-4-[1-(3,5-di-tert-butyl-4-hydroxyphenylsulfanyl)-1-methylethylsulfanyl]phenoxy}acetylamino)propionic acid] | – | – |
| 5.22 | 163 to 164 | – | – | CC(C)(Sc1cc(C(C)(C)C)c(O)c(C(C)(C)C)c1)Sc1cc(C(C)(C)C)c(OCC(=O)NC(CO)CO)c(C(C)(C)C)c1 [Ex-6, 2-{2,6-Di-tert-butyl-4-[1-(3,5-di-tert-butyl-4-hydroxyphenylsulfanyl)-1-methyl-ethylsulfanyl]phenoxy}-N-(2-hydroxy-1-hydroxymethyl-ethyl)acetamide] | – | – |
| 4.40 | 110 to 112 | 5.10 | 5.42 | CC(C)(Sc1cc(C(C)(C)C)c(O)c(C(C)(C)C)c1)Sc1cc(C(C)(C)C)c(OCC[C@H](O)CO)c(C(C)(C)C)c1 [Ex-10, 4-{2,6-Di-tert-butyl-4-[1-(3,5-di-tert-butyl-4-hydroxy-phenylsulfanyl)-1-methyl-ethylsulfanyl]-phenoxy}-butane-1,2(S)-diol] | 85 | 78 |
| < 4.30 | – | 5.15 | 5.36 | CC(C)(Sc1cc(C(C)(C)C)c(O)c(C(C)(C)C)c1)Sc1cc(C(C)(C)C)c(OCC[C@@H](O)CO)c(C(C)(C)C)c1 [Ex-11, 4-{2,6-Di-tert-butyl-4-[1-(3,5-di-tert-butyl-4-hydroxy-phenylsulfanyl)-1-methyl-ethylsulfanyl]-phenoxy}-butane-1,2(R)-diol] | 85 | 95 |
| – | 68 to 71 | 4.96 | – | CC(C)(Sc1cc(C(C)(C)C)c(O)c(C(C)(C)C)c1)Sc1cc(C(C)(C)C)c(OCCC[C@H](O)CO)c(C(C)(C)C)c1 [Ex-13, 5-{2,6-Di-tert-butyl-4-[1-(3,5-di-tert-butyl-4-hydroxy-phenylsulfanyl)-1-methyl-ethylsulfanyl]-phenoxy}-pentane-1,2(S)-diol] | – | 60 |
| 4.68 | 75 to 77 | 5.04 | – | CC(C)(Sc1cc(C(C)(C)C)c(O)c(C(C)(C)C)c1)Sc1cc(C(C)(C)C)c(OCCC(O)C(O)CCO)c(C(C)(C)C)c1 (stereo not drawn) [Ex-14, 6-{2,6-Di-tert-butyl-4-[1-(3,5-di-tert-butyl-4-hydroxy-phenylsulfanyl)-1-methyl-ethylsulfanyl]-phenoxy}-hexane-1,3,4-triol] | – | 84 |
| – | 62 to 64 | – | – | COC[C@H](O)[C@@H](O)COc1c(C(C)(C)C)cc(SC(C)(C)Sc2cc(C(C)(C)C)c(O)c(C(C)(C)C)c2)cc1C(C)(C)C [Ex-15, 1-{2,6-Di-tert-butyl-4-[1-(3,5-di-tert-butyl-4-hydroxyphenylsulfanyl)-1-methylethylsulfanyl]phenoxy}-4-methoxybutane-2(S),3(S)-diol] | – | – |
| – | 68 to 70 | – | – | COC[C@@H](O)[C@H](O)COc1c(C(C)(C)C)cc(SC(C)(C)Sc2cc(C(C)(C)C)c(O)c(C(C)(C)C)c2)cc1C(C)(C)C [Ex-16, 1-{2,6-Di-tert-butyl-4-[1-(3,5-di-tert-butyl-4-hydroxyphenylsulfanyl)-1-methylethylsulfanyl]phenoxy}-4-methoxybutane-2(R),3(R)-diol] | 63 | 44 |
| 4.89 | – | 5.22 | 5.35 | CC(C)(Sc1cc(C(C)(C)C)c(O)c(C(C)(C)C)c1)Sc1cc(C(C)(C)C)c(OCC(CO)CO)c(C(C)(C)C)c1 [Ex-18, 2-{2,6-Di-tert-butyl-4-[1-(3,5-di-tert-butyl-4-hydroxyphenylsulfanyl)-1-methylethyl-sulfanyl]phenoxymethyl}propane-1,3-diol] | 83 | 60 |
| < 4.30 | – | – | – | COCCOCCOCCOc1c(C(C)(C)C)cc(SC(C)(C)Sc2cc(C(C)(C)C)c(O)c(C(C)(C)C)c2)cc1C(C)(C)C [Ex-19, 2,6-Di-tert-butyl-4-[1-(3,5-di-tert-butyl-4-{2-[2-(2-methoxyethoxy)-ethoxy]ethoxy}-phenyl-sulfanyl)-1-methylethylsulfanyl]phenol] | – | – |
| – | 60 to 62 | – | – | CCOC1O[C@H](CO)[C@@H](COc2c(C(C)(C)C)cc(SC(C)(C)Sc3cc(C(C)(C)C)c(O)c(C(C)(C)C)c3)cc2C(C)(C)C)O1 (stereo partly drawn) [compound 9, 2,6-Di-tert-butyl-4-{1-[3,5-di-tert-butyl-4-(2-ethoxy-5(R)-hydroxymethyl-[1,3]dioxolan-4(R)-ylmethoxy)-phenylsulfanyl]-1-methyl-ethylsulfanyl}-phenol] | – | – |
| – | 146 to 147 | – | – | CC(C)(Sc1cc(C(C)(C)C)c(O)c(C(C)(C)C)c1)Sc1cc(C(C)(C)C)c(OCCO)c(C(C)(C)C)c1 [compound 17, 2,6-Di-tert-butyl-4-{1-[3,5-di-tert-butyl-4-(2-hydroxy-ethoxy)-phenylsulfanyl]-1-methyl-ethylsulfanyl}-phenol] | – | – |
